How the values were obtained:
VX2 tumor slices = assay: Glycolysis (lactic acid formation) in VX2 tumor slices; format: cell-based, rabbit; conditions: for inhibition of VX2 tumor glycolysis in the limited screen: 6 mM agent, 6 mM glucose, 37° C., 5 h
Description: Glycolysis was assayed by monitoring the formation of lactic acid following the addition of glucose to a medium containing VX2 tumor slices. Specifically, freshly excised tumors were washed 3 times at 4° C. in 20 ml Chance Hess Medium containing 6.2 mM KCl, 154 mM NaCl, and 11 mM NaPi, pH 7.4. Slices, 1 g each, were then prior incubated for 30 min in a Lab-Line incubator-shaker at 37° C. in 2 ml of the same medium while shaking at 50 rpm. Glucose was then added to give a final concentration of 6 mM, after which the incubation/shaking process was continued with 0.2 ml samples being removed every 30 min for up to 2 h. These samples were subjected to centrifugation at 14,000 rpm in an Eppendorf Centrifuge (Model 5415C). Then, aliquots of the supernatant, 0.01 ml, were removed from each sample, diluted with 0.03 ml of water and subjected to lactic acid determination using the kit supplied by Sigma. The latter contains, in addition to lactic dehydrogenase and NAD+, hydrazine, and glycine buffer, pH 9.2. The mixture was incubated for 30 min at 25° C. after which the absorbance due to formation of NADH was determined at 340 nm using a Gilford Model 260 spectrophotometer. To assess the elevation of the glycolytic activity of the VX2 tumor over that of liver tissue, parallel studies were always carried out in an identical manner with 1 g liver slices derived from the host liver. Finally, in those cases where agents were tested for their capacity to inhibit glycolysis, these were introduced into the system at the prior incubation step with all subsequent steps being run in parallel with those described above for the VX2 tumor or liver alone.
The screen included the following 9 compounds: 2-deoxyglucose (2DOG), 2-fluoro-2-deoxyglucose, 6-fluoro-6-deoxyglucose, 3-O-methyl glucose, 5-thio-D-glucose-6-phosphate, L-glucose, D-xylose, D-lyxose, and 3-bromopyruvic acid (3BrPA). The screen was conducted by incubating VX2 tumor slices in a medium containing 6 mM glucose with 6 mM of each of these agents at 37° C. for 5 h. The use of 6 mM glucose in the medium was used to mimic the maximal amount of glucose that might be in the blood in a real in vivo situation.
With the above preliminary data at hand, only two of the 9 compounds screened were studied in more detail. One was 2DOG because under certain conditions it is known to inhibit glycolysis when it is phosphorylated by hexokinase to 2DOG-6-P which cannot be further metabolized. The other compound tested in more detail was 3BrPA because of its effectiveness as a glycolytic inhibitor in the preliminary screen.

AS-30D hepatoma cells = assay: Hepatoma cell viability by trypan blue; format: cell-based, rat; conditions: 20 mM, 12 h
Description: AS-30D hepatoma cells grown in the peritoneal cavity of Sprague Dawley female rats (see Materials) were adapted to grow in tissue culture in Dulbecco's modified Eagle's medium containing 10% fetal bovine serum. Cells were maintained at 37° C. in a humidified atmosphere containing 5% CO2, and counted in a Neubauer chamber after trypan blue dye addition (cell/dye volume=1/1) by visualization under a Nikon inverted microscope.
The studies described above using the VX2 tumor model for liver cancer predict that 2DOG and 3BrPA may have the capacity to kill hepatoma cells expressing the high glycolytic/high hexokinase phenotype. […] Cell killing was assessed in these experiments by counting those cells in which trypan blue had entered.

| SMILES | inhibition of VX2 tumor glycolysis in the limited screen (VX2 tumor slices) | other results |
| --- | --- | --- |
| O=C[C@H](F)[C@@H](O)[C@H](O)[C@H](O)CO [2-fluoro-2-deoxyglucose] | ineffective |  |
| O=C[C@H](O)[C@@H](O)[C@H](O)[C@H](S)COP(=O)(O)O [5-thio-D-glucose-6-phosphate] | ineffective |  |
| O=C[C@@H](O)[C@@H](O)[C@H](O)CO [D-lyxose] | ineffective |  |
| CO[C@@H]([C@H](O)[C@H](O)CO)[C@@H](O)C=O [3-O-methyl glucose] | ineffective |  |
| O=C[C@H](O)[C@@H](O)[C@H](O)CO [D-xylose] | ineffective |  |
| O=C[C@@H](O)[C@H](O)[C@@H](O)[C@@H](O)CO [L-glucose] | ineffective |  |
| O=CC[C@@H](O)[C@H](O)[C@H](O)CO [2DOG, 2-deoxyglucose] | ineffective | IC50 (VX2 tumor slices; Oryctolagus cuniculus, 0.5 h, VX2 tumor slices, agent prior incubated 30 min at 37° C., read-out: half maximal inhibition of glycolysis): ~15 mM; concentration for maximal or complete inhibition of glycolysis (VX2 tumor slices; VX2 tumor slices, agent prior incubated 30 min at 37° C.): ~50 mM; maximal inhibition of glycolysis (VX2 tumor slices; VX2 tumor slices, at almost 50 mM): 70%; cells killed (trypan blue uptake) (AS-30D hepatoma cells): about 80% |
| O=C[C@H](O)[C@@H](O)[C@H](O)[C@H](O)CF [6-fluoro-6-deoxyglucose] | ineffective |  |
